We go through 3 compounds from patent publication EP0979827A1, “Peptides having tachykinin antagonist activity, a process for preparation thereof and pharmaceutical compositions comprising the same” (Boehringer Ingelheim Pharma KG, priority 1992, dated 1994).

SMILES strings stand for the structures.

T1 sequence (P25103 whole entry): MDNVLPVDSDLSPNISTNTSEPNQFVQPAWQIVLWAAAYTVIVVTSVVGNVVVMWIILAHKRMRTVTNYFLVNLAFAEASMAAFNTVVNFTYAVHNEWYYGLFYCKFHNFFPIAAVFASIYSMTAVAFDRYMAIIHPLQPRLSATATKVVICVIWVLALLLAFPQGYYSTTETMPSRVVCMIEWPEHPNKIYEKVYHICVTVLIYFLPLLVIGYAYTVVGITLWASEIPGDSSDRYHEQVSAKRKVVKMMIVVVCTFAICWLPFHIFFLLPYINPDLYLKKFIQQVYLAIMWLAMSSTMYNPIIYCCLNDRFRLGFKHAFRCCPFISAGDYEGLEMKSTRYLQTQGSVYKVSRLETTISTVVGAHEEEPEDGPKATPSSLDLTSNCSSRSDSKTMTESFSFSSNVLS

The assay has as its target T1, NK1-Rezeptor (Substanz P-Rezeptor) (Homo sapiens, UniProt P25103).
T1 construct: expressed in transfected cells; host or cells: human lymphoblastoma cells IM-9
The assay can be described thus: Receptor affinity for the NK1 receptor: displacement of 125I-labelled substance P on IM-9 cells. It is filed as binding. As to conditions: humane Lymphoblastoma-Zellen (IM-9) mit klonierten NK1-Rezeptoren; Verdrängung von 125J-markierter Substanz P; read-out: IC50-Werte. The method, then: Die Rezeptoraffinität zum NK1-Rezeptor (Substanz P-Rezeptor) wurde an humanen Lymphoblastoma-Zellen (IM-9) mit klonierten NK1-Rezeptoren bestimmt, wobei die Verdrängung von ^125J-markierter Substanz P gemessen wird. Die so erhaltenen IC50-Werte betragen: Verb. A : 60 nM Verb. B : 21 nM Verb. C : 90 nM Verb. D : 45 nM [drawing 26]
(Displacement assays read how much labelled ligand stays bound in the presence of the test substance.)
As to `CN(Cc1ccccc1)C(=O)[C@H](Cn1cccc1)NC(=O)[C@@H]1C[C@@H](O)CN1C(=O)c1c[nH]c2ccccc12` [Verb. A], the IC50 – broadly, the concentration at which inhibition is half-maximal – amounted to 60 nM. The value for `CN(Cc1ccccc1)C(=O)[C@H](COCc1ccccc1)NC(=O)[C@@H]1C[C@@H](O)CN1C(=O)c1c[nH]c2ccccc12` [Verb. B] was 21 nM. The same measure for `CN(Cc1ccccc1)C(=O)[C@H](CC1CCCCC1)NC(=O)[C@@H]1C[C@@H](O)CN1C(=O)c1c[nH]c2ccccc12` [Verb. D]: 45 nM.
